“And” between values parts separate entries of the source, which are not always exact repeats. Equal values may be shown once. Read-outs that look alike come from different tables or passages of the source. Marks after values point to notes of the source that are not given here.
Experiments:
RjOrl: Swiss mice [1] = details: 44 mA; Klein et al., 2017; cited from earlier work
[2] = in vivo; cited from earlier work
CB2 receptors = details: cited from earlier work
CB1 = details: cited from earlier work
C57BL/6J mice [3] = test: mouse maximal electroshock seizure threshold model (MEST); format: in vivo; details: 30 min
Protocol: Vehicle=1:2:17 ethanol:Solutol® (Kolliphor® HS 15):saline: 1 mL of ethanol and 2 mL of solutol were warmed to 60 °C and 17 mL of 0.9% saline was added slowly. […]
Vehicle=0.5% HPMC and 0.1% Tween 80:0.5% HPMC and 0.1% Tween 80 in water.

C57BL/6J mice [4] = details: mouse, in vivo; cited from earlier work
C57BL/6J mice [5] = details: mouse, in vivo; cited from earlier work; remark: listed apart in the source
DBA/2 mice [6] = details: De Sarro et al., 2017; cited from earlier work
RjOrl: Swiss mice [7] = test: mouse 6 Hz (44 mA) model of partial seizures; format: in vivo; details: 200 mg/kg i.p., 30 min
Description: The 6 Hz (44 mA) model of partial seizures, which detects anticonvulsant activity, follows that described by Brown et al. 1953.
[…] A decrease in forelimb clonus score is indicative of protection from seizure and an anticonvulsive effect.
When conducted at a 44 mA stimulus intensity in mice, the 6 Hz test can differentiate compounds with potential for the treatment of focal-onset seizures that are often resistant to current anti-epileptic drugs.
Male RjOrl: Swiss mice (Janvier Labs, 53940 Le Genest-Saint-Isle, France), 5 weeks old, weighing 27-38 g at the beginning of the experiment. Animals were acclimatized to the Test Facility for at least 5 days after delivery and randomly housed in groups of 5 to 8 in macrolon cages on wood litter with free access to food and water.
(§1) The animal house was maintained under artificial lighting (12 hours) between 7:00 and 19:00 in a controlled ambient temperature of 22±2 °C and relative humidity between 30-70%.
Before transcorneal stimulation, a drop of tetracaine solution (1%) was applied on each eye of the mouse for local anesthesia. Between 1-10 minutes later and at the designated pre-treatment (see below), the mice were administered a rectangular current (44 mA, rectangular pulse: 0.2 ms pulse width, 3 s duration, (6 Hz) via corneal electrodes connected to a constant current shock generator (Ugo Basile: type 7801).
The results for the number of seizures as reflected by forelimb clonus were recorded immediately after current administration. Forelimb clonus was scored as absent (0=no forelimb clonus), mild (1=clonus with one forelimb) and strong (2=clonus with both forelimbs). The experimenters were blinded to the treatment. […]
The administration volume was 10 mL/kg.
Due to the number of animals tested, the experiment was divided in 2 sub-experiments on 2 consecutive days with equivalent numbers of mice per group and per sub-experiment.
Data were discrete values so considered to be non-normally distributed based on validation data, therefore non-parametric tests were utilized. Quantitative data (scores) with the test substance were analyzed by comparing test compound-treated groups with the 1:2:17 vehicle control using Kruskal-Wallis test with Dunn's multiple comparisons test when the Kruskal-Wallis test was significant. Quantitative data with the reference substance were analyzed using Mann-Whitney U test as compared to saline vehicle.

RjOrl: Swiss mice [8] = test: mouse 6 Hz (44 mA) model of partial seizures; format: in vivo; details: 200 mg/kg i.p., 30 min; vs vehicle (HPMC)
DBA/2 mice [9] = test: mouse audiogenic seizure test; format: in vivo; details: 180 mg/kg i.p., 30 min
Description: The Audiogenic Seizure Test, which detects anticonvulsant activity, follows that described by Durmüller et al., 1993. Mice of the DBA/2 strain undergo an age-dependent sequence of convulsions (wild-running, clonic convulsion, tonic convulsion and respiratory arrest) within 60 seconds of exposure to a loud sound of 110-120 dB. The type of convulsions are consistent with aspects of generalised seizure in humans.
Male DBA/2 mice (3-4 weeks old) were supplied by Janvier Labs (53940 Le Genest-Saint-Isle, France); weight range 6-13 g at the beginning of the experiment. Animals were acclimatized to the Test Facility for 1 day after delivery and randomly housed in groups of 5 in macrolon cages on wood litter with free access to food and water.
as §1
Mice were individually transferred (at 3-5 minutes intervals) from the preparation room into an adjacent experimental room and body temperature was measured using a rectal thermometer (Digital Laboratory Thermometer: Model BAT-12). Immediately after, they were placed in a Plexiglas jar (Diameter=40 cm; Height=35 cm) mounted with an electric bell (110-120 dB, supplier Leroy Merlin, France). Upon activating the bell, the occurrences and latencies to wild running fits, clonic and tonic seizures were measured. Deaths were also recorded. The bell was activated until a tonic seizure occurred, or for a maximum of 60 seconds.
The experiment included groups of 10 mice per group. Experimenters were only partially blinded to treatment group as pre-treatment times were different.
The test substance was evaluated at various doses, administered i.p. (10 ml/kg) 15 or 30 minutes before the test, and compared with a vehicle control group.
Due to the number of animals tested, the experiment was divided in 2 sub-experiments on 2 separate days (7 days apart) with 5 mice per group in each sub-experiment.
Data were tested for normality using d'Agostino-Pearson Test and found to not follow a normal distribution. Statistical outliers were not identified or removed because no behavioural outliers were identified. Quantitative data (latencies) with the test substance were analyzed by comparing treated groups with vehicle control using Kruskal-Wallis test followed by Dunn's multiple comparisons test. Quantitative data with the reference substance were analyzed using Mann-Whitney U test. Quantal data (frequencies) were analyzed by comparing treated groups with vehicle control using Fisher's Exact Probability test.

For `C=C(C)[C@@H]1CCC(C)=C[C@H]1c1c(O)cc(CCCCC)cc1O` [CBD, cannabidiol], the “anticonvulsive effects in the 6 Hz test” value (RjOrl: Swiss mice [1]) is given as “exhibit anticonvulsive effects”, the “psychotropic effects associated with cannabis” value [2] is given as “does not induce the psychotropic effects” and the “binding to CB2 receptors” value (CB2 receptors) is given as “does not bind”. The “binding to CB1” value (CB1) was “does not bind”.
For `CN1C(=O)CN=C(c2ccccc2)c2cc(Cl)ccc21` [Diazepam, diazepam, reference compound], the “Change from vehicle (CC50)” value (C57BL/6J mice [3]; 2.5 mg/kg i.p., vs 1:1:18 ethanol:Kolliphor EL:saline vehicle) was 406%^###, the “Change from vehicle (CC50)” value (C57BL/6J mice [3]; 2.5 mg/kg i.p., vs 1:2:17 ethanol:Solutol:saline vehicle) was 439%^### and the “Change from vehicle (CC50)” value (C57BL/6J mice [3]; 2.5 mg/kg i.p., vs HPMC vehicle) was 652%*** and 526%***. For the same molecule, the “anticonvulsive properties in the MEST test” value (C57BL/6J mice [4]) was “exhibit anticonvulsive properties” and the “anticonvulsive properties in the MEST test” value (C57BL/6J mice [5]) was “exhibit anticonvulsive properties”.
In the case of `CCCC(CCC)C(=O)[O-].[Na+]` [Sodium Valproate, sodium valproate, reference compound], the “protection from clonic convulsions, tonic convulsions and respiratory arrest” value (DBA/2 mice [6]) is given as “protect DBA/2 mice from clonic convulsions, tonic convulsions and respiratory arrest”, the “CC50 +/− SEM” value (C57BL/6J mice [3]; 150 mg/kg i.p., 1:1:18 ethanol:Kolliphor EL:saline) is given as 139.2 ± 2.1 mA and the “CC50 +/− SEM” value (C57BL/6J mice [3]; 150 mg/kg i.p., 1:2:17 ethanol:Solutol:saline) is given as 104.2 ± 1.0 mA. The “CC50 +/− SEM” value (C57BL/6J mice [3]; 150 mg/kg i.p., study with HPMC vehicle) was >300.0 mA and 215.8 ± 30.1 mA, the “Change from vehicle (CC50)” value (C57BL/6J mice [3]; 150 mg/kg i.p., vs 1:1:18 ethanol:Kolliphor EL:saline vehicle) was 457%^### and the “Change from vehicle (CC50)” value (C57BL/6J mice [3]; 150 mg/kg i.p., vs 1:2:17 ethanol:Solutol:saline vehicle) was 346%^###. For the same molecule, the “Change from vehicle (CC50)” value (C57BL/6J mice [3]; 150 mg/kg i.p., vs HPMC vehicle) was >1043%*** and 714%***, the “Change from vehicle 1 (forelimb clonus)” value (RjOrl: Swiss mice [7]; vs vehicle 1 (saline)) was −82%*** and the “Change from vehicle 2 (forelimb clonus)” value (RjOrl: Swiss mice [7]; vs vehicle 2 (1:2:17 ethanol:Kolliphor HS15:saline)) was −89%***. The “Change from vehicle (forelimb clonus)” value (RjOrl: Swiss mice [8]) was −60%***, the “Clonic convulsion - presence, %” value (DBA/2 mice [9]) was 30% and the “Tonic convulsion - presence, %” value (DBA/2 mice [9]) was 0%. For the same molecule, the “Wild running - presence, %” value (DBA/2 mice [9]) was 30%, the “latencies to clonic convulsions (significance in words)” value (DBA/2 mice [9]) was “significantly increased” and the “latencies to tonic convulsions (significance in words)” value (DBA/2 mice [9]) was “significantly increased”. The “latencies to wild running (significance in words)” value (DBA/2 mice [9]) was “significantly increased”, the “number of mice displaying clonic convulsions (significance in words)” value (DBA/2 mice [9]) was “significantly decreased” and the “number of mice displaying tonic convulsions (significance in words)” value (DBA/2 mice [9]) was “significantly decreased”. The “number of mice displaying wild running (significance in words)” value (DBA/2 mice [9]) was “significantly decreased”, the “Clonic convulsion - presence, Total” value (DBA/2 mice [9]; number of mice, n = 10) was 1 and the “Tonic convulsion - presence, Total” value (DBA/2 mice [9]; number of mice, n = 10) was 0. For the same molecule, the “Wild running - presence, Total” value (DBA/2 mice [9]; number of mice, n = 10) was 1.
In the case of `NC(=O)N1c2ccccc2C=Cc2ccccc21` [carbamazepine], the “protection from clonic convulsions, tonic convulsions and respiratory arrest” value (DBA/2 mice [6]) is given as “protect DBA/2 mice from clonic convulsions, tonic convulsions and respiratory arrest”.
